Measured values as given in PubChem BioAssay AID248 (DTP/NCI, 2004).
Values joined by “and” are separate entries in the source; they are usually repeats but may differ in a detail not shown here. Equal values may be shown once. Inconclusive results and toxic doses are left out. Cut-off read from the data, not from the text of the source: active = T/C of 150% or more; inactive = T/C below 125%.

Test system: L1210 leukemia ip in BDF1 mice, survival T/C
Experiment: NCI In Vivo Anticancer Drug Screen. Data for tumor model L1210 Leukemia (intraperitoneal) in B6D2F1 (BDF1) mice
Settings: endpoint: mean survival time, higher = longer survival
In short: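 Ratio derived from survival: compound-dosed mice over vehicle-dosed mice, all bearing a transplantable tumor.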

[1] = dose: 100.0 mg/kg/injection, schedule: Q04DX002 (ip), vehicle: Klucel (hydroxypropylcellulose) (HPC)
[2] = dose: 100.0 mg/kg/injection, schedule: Q04DX003 (ip), vehicle: saline with Tween-80
[3] = dose: 200.0 mg/kg/injection, schedule: Q04DX003 (ip), vehicle: saline with Tween-80
[4] = dose: 400.0 mg/kg/injection, schedule: Q04DX003 (ip), vehicle: saline with Tween-80
[5] = dose: 100.0 mg/kg/injection, schedule: Q01DX009 (ip), vehicle: Klucel (hydroxypropylcellulose) (HPC)
[6] = dose: 200.0 mg/kg/injection, schedule: Q01DX009 (ip), vehicle: Klucel (hydroxypropylcellulose) (HPC)
[7] = dose: 400.0 mg/kg/injection, schedule: Q01DX009 (ip), vehicle: Klucel (hydroxypropylcellulose) (HPC)
[8] = dose: 100.0 mg/kg/injection, schedule: Q04DX003 (ip), vehicle: Klucel (hydroxypropylcellulose) (HPC)
[9] = dose: 200.0 mg/kg/injection, schedule: Q04DX003 (ip), vehicle: Klucel (hydroxypropylcellulose) (HPC)
[10] = dose: 400.0 mg/kg/injection, schedule: Q04DX003 (ip), vehicle: Klucel (hydroxypropylcellulose) (HPC)
[11] = dose: 75.0 mg/kg/injection, schedule: Q01DX001 (ip), vehicle: saline
[12] = dose: 150.0 mg/kg/injection, schedule: Q01DX001 (ip), vehicle: saline

Measured: T/C

CCCCCCCCCCCCSC(=O)NCCC
inactive: dose: 100.0 mg/kg/injection, schedule: Q01DX009 (ip), vehicle: other 95 % of control | dose: 200.0 mg/kg/injection, schedule: Q01DX009 (ip), vehicle: other 90 % of control | dose: 400.0 mg/kg/injection, schedule: Q01DX009 (ip), vehicle: other 92 % of control

Cc1ccc(CNC(=O)Nc2ccccc2Cl)c(C)c1
inactive: [1] 105 % of control | dose: 200.0 mg/kg/injection, schedule: Q04DX002 (ip), vehicle: Klucel (hydroxypropylcellulose) (HPC) 97 % of control | dose: 400.0 mg/kg/injection, schedule: Q04DX002 (ip), vehicle: Klucel (hydroxypropylcellulose) (HPC) 97 % of control

CCOCC[P+](c1ccccc1)(c1ccccc1)c1ccccc1
inactive: dose: 5.0 mg/kg/injection, schedule: Q01DX001 (ip), vehicle: saline 92 % of control | dose: 10.0 mg/kg/injection, schedule: Q01DX001 (ip), vehicle: saline 92 % of control | dose: 10.0 mg/kg/injection, schedule: Q01DX015 (ip), vehicle: saline 90 % of control | dose: 20.0 mg/kg/injection, schedule: Q01DX001 (ip), vehicle: saline 106 % of control | dose: 40.0 mg/kg/injection, schedule: Q01DX001 (ip), vehicle: saline 105 % of control

CC(NC(=O)OCc1ccccc1)C(=O)NC(CSCc1ccccc1)C(=O)O (stereo not given)
inactive: [2] 97 % of control | [3] 97 % of control | [4] 97 % of control

CCCCCCc1cc[n+](C(=O)c2ccc([N+](=O)[O-])cc2)cc1
inactive: [2] 102 % of control | [3] 104 % of control | [4] 94 % of control

CC(=O)c1ccc(CC23CC4CC(CC(C4)C2)C3)cc1
inactive: [5] 99 % of control | [6] 90 % of control | [7] 94 % of control

COC(=O)C(CCSC)NC(=O)CNC(=O)OCc1ccccc1 (stereo not given)
inactive: [8] 99 % of control | [9] 97 % of control | [10] 92 % of control

Cc1ncc(CO)c(C2NOCc3nscc32)c1O (stereo not given)
inactive: dose: 3.12 mg/kg/injection, schedule: Q01DX009 (ip), vehicle: Klucel (hydroxypropylcellulose) (HPC) 94 % of control | dose: 3.12 mg/kg/injection, schedule: Q01DX009 (ip), vehicle: other 98 % of control | dose: 6.25 mg/kg/injection, schedule: Q01DX009 (ip), vehicle: other 100 % of control | dose: 12.5 mg/kg/injection, schedule: Q01DX009 (ip), vehicle: Klucel (hydroxypropylcellulose) (HPC) 89 % of control | dose: 12.5 mg/kg/injection, schedule: Q01DX009 (ip), vehicle: other 107 % of control | dose: 12.5 mg/kg/injection, schedule: Q04DX003 (ip), vehicle: Klucel (hydroxypropylcellulose) (HPC) 92 % of control

O=C(Nc1ccc(Cl)c(Cl)c1)c1ccc(Cl)c(Cl)c1
inactive: dose: 50.0 mg/kg/injection, schedule: Q04DX002 (ip), vehicle: saline with Tween-80 94 % of control | dose: 100.0 mg/kg/injection, schedule: Q04DX002 (ip), vehicle: saline with Tween-80 91 % of control | dose: 200.0 mg/kg/injection, schedule: Q04DX002 (ip), vehicle: saline with Tween-80 91 % of control

C[N+]1(C2CCC3CCCC2C3=O)CCCC1 (stereo not given)
inactive: [11] 98 % of control | [12] 106 % of control

O=C1CCCC/C1=C/c1ccccc1
inactive: [5] 102 % of control and 112 % of control | [8] 97 % of control and 96 % of control | [6] 102 % of control | [9] 104 % of control and 101 % of control | [7] 102 % of control and 96 % of control | [10] 104 % of control and 100 % of control

COC(=O)N1C2C=CC(=O)C(C=C2)N1C(=O)OC (stereo not given)
inactive: [11] 106 % of control | [12] 106 % of control | dose: 300.0 mg/kg/injection, schedule: Q01DX001 (ip), vehicle: saline 109 % of control

O=C1OCC/C1=C\N1CCCCC1
inactive: dose: 25.0 mg/kg/injection, schedule: Q04DX002 (ip), vehicle: Klucel (hydroxypropylcellulose) (HPC) 113 % of control | dose: 50.0 mg/kg/injection, schedule: Q04DX002 (ip), vehicle: Klucel (hydroxypropylcellulose) (HPC) 98 % of control | [1] 98 % of control and 101 % of control

Oc1cc(O)c(O)cc1O
inactive: dose: 6.25 mg/kg/injection, schedule: Q01DX009 (ip), vehicle: saline 102 % of control | dose: 6.25 mg/kg/injection, schedule: Q04DX003 (ip), vehicle: saline with Tween-80 93 % of control | dose: 12.5 mg/kg/injection, schedule: Q01DX009 (ip), vehicle: saline 102 % of control | dose: 12.5 mg/kg/injection, schedule: Q04DX003 (ip), vehicle: saline with Tween-80 97 % of control | dose: 25.0 mg/kg/injection, schedule: Q01DX009 (ip), vehicle: saline 110 % of control | dose: 25.0 mg/kg/injection, schedule: Q04DX003 (ip), vehicle: saline with Tween-80 98 % of control

CC1=CC(C)(C)NC(=S)N1c1ccc(C)cc1
inactive: [8] 104 % of control | [9] 93 % of control | [10] 91 % of control
